The subject of one test is collagenase. Put plainly: Anti-collagenase activity on frozen sections, collagen stained with picro-sirius and image analysis. Format: biochemical. On the procedure: The anti-collagenase activity test was carried out on ds-es frozen sections. The products to be tested were mixed (volume/volume) with a collagenase solution at 60 U/ml. Incubation took place in a humid chamber for 2 h at 37° C. The remaining collagen was stained with picro-sirius and quantified by image analysis.
• 1. Control TRIS buffer • 2. Collagenase […] • 3. Reference R: phenanthroline • 4. Reference R: phenanthroline+collagenase 60 U/ml • 5. Product P2: Immortelle very precious cream ref 05.34.A • 6. Product P2: Immortelle very precious cream ref 05.34.A+collagenase 60 U/ml
For each sample, 4 microscopic fields were analysed as a function of the size of the sample. Each microscopic field is digitised and analysed according to the method described below using the LEICA QWIN software.
1. Digitised Image • Staining of the collagen network
2. Detection of the Collagen by Thresholding • Binary mask 0
3. Determination of the Zone of Interest • Exclusion of the epidermis and annexes • Inversion of the mask so as to retain only the zone corresponding to the dermis • Binary mask 2
4. Selection of Collagen in the Zone of Interest • Binary mask 3=2+0
5. Surface measurement Measurement of binary mask 3 • Measurement of binary mask 2
6. Results Exporting of results to Excel • Calculation of the percentage of surface area occupied by collagen in the dermis

Test [1] has as its system melanocytes. Briefly: Reduction of intra-cellular melanin. Format: cell-based. The conditions noted are these: AA-2G 2 mM for 48 hours. On the procedure: • a) Culturing of melanocytes for 48 hours • b) Addition of AA-2G 2 mM for 48 hours • c) Lysis of the cells in order to read the quantity of melanin contained.
Test [2] deals with melanocytes. Put plainly: Inhibition of melanogenesis stimulated by theophylline. To be noted: AA-2G 2.5 mM for 12 hours; theophylline 0.5 mM. The class given is cell-based. On the procedure: • a) Culturing of melanocytes with AA-2G 2.5 mM+control without AA-2G for 12 hours • b) Stimulation of melanogenesis by theophylline (0.5 mM) • c) Detection of melanin by colorimetry (photos).

Another test relates to keratinocytes. Put plainly: Stimulation of ATP synthesis, intracellular ATP content by bioluminescence. Format: cell-based. To be noted: 0.01%; incubation for 6 hours. On the procedure: After incubation for 6 hours, the intracellular ATP content was measured by bioluminescence using the kit “ATP Monitoring Kit” (LABSYSTEMS) according to the manufacturer's instructions. The results were expressed in mM of ATP and as a percentage of the control group.
Effect of Sepitonic M3 and of cytochrome C on the ATP content of keratinocytes after incubation for 6 hours: […]

For the molecule `c1cnc2c(c1)ccc1cccnc12` [phenanthroline], the “anti-collagenase activity, in words” value in the test on collagenase is “completely inhibits the effect of collagenase”. Moreover, the “percentage of surface area occupied by collagen in the dermis, Mean (typical variance)” value with collagenase (With collagenase (60 U/ml mixed volume/volume), 2 h at 37° C.) is 90.4 (3.8) %. In the test on collagenase (without collagenase), the “histological examination of the collagen” value is on record as “well structured” and the “percentage of surface area occupied by collagen in the dermis, Mean (typical variance)” value is listed as 88.7 (1.5) %.

On to `O=C1O[C@H]([C@@H](O)CO)C(O)=C1O[C@H]1O[C@H](CO)[C@@H](O)[C@H](O)[C@H]1O` [AA-2G, O-α-D-glucopyranosyl-(1→2)-L-ascorbic acid], for which the “reduction of intra-cellular melanin” value with melanocytes [1] is listed as 60%. In addition, the “quantity of developed melanin versus untreated melanocytes (photos)” value in the test on melanocytes [2] is given as “lesser quantity of developed melanin”.

For “Cytochrome C: reference in the keratinocyte ATP test”, in the test with keratinocytes, the “ATP content of keratinocytes, percentage of the control group (ES)” value is given as “ES 110%”.

(Values after patent publication US20090269419A1, “COSMETIC COMPOSITION BASED ON POLYUNSATURATED FATTY ACIDS AND ITS USES” (priority 2006, published 2009).)
